Measured values from US20140066365A1, “USE OF CALIXARENES ASSOCIATED WITH AN ANTIBIOTIC IN THE TREATMENT OF BACTERIAL INFECTIONS” (priority 2011, published 2014).
Converted amounts (≈) assume the structure as drawn. Like-named read-outs stand apart in the source and are kept apart here.

Legend:
[1] = test system: ESBL-producing strain of Escherichia coli, having an associated resistance to the aminoglycosides (EcR3); assay: MIC of the compounds used alone, microdilution in a liquid medium (CLSI); format: cell-based; settings: Escherichia coli, antibiotic alone (second value of cell), read-out: Initial MICs
Description: (§1) The MICs of the antibiotics were previously defined for each strain, by the method of microdilution in a liquid medium (CLSI (Clinical and Laboratory Standards Institute), 2003).

[2] = test system: Escherichia coli strain ATCC 25922 (wild type); assay: as above; format: cell-based; settings: Escherichia coli, ATCC25922; antibiotic alone (second value of cell); E. coli ATCC 25922; read-out: Initial MICs
Description: as §1

[3] = test system: Pseudomonas aeruginosa strain ATCC 27853 (wild type); assay: as above; format: cell-based; settings: Pseudomonas aeruginosa, ATCC27853; antibiotic alone (second value of cell); P. aeruginosa ATCC 27853; read-out: MIC
Description: as §1

[4] = test system: Pseudomonas aeruginosa strain PaR3; assay: as above; format: cell-based; settings: Pseudomonas aeruginosa, antibiotic alone (second value of cell), read-out: MIC
Description: as §1

[5] = test system: Staphylococcus aureus strain ATCC 29213 (wild type); assay: as above; format: cell-based; settings: Staphylococcus aureus
Description: as §1

[6] = test system: cephalosporinase-hyperproducing strain of Escherichia coli (EcR2); assay: as above; format: cell-based; settings: Escherichia coli, antibiotic alone (second value of cell), read-out: Initial MICs
Description: as §1

[7] = test system: mucoid strain of Pseudomonas aeruginosa PaR5; assay: as above; format: cell-based; settings: Pseudomonas aeruginosa, antibiotic alone (second value of cell), read-out: MIC
Description: as §1

[8] = test system: penicillinase-producing strain of Escherichia coli without associated resistance (EcR1); assay: as above; format: cell-based; settings: Escherichia coli, antibiotic alone (second value of cell), read-out: Initial MICs
Description: as §1

[9] = test system: Pseudomonas aeruginosa strain PaR2; assay: microbe, parasite or virus in culture; format: cell-based; settings: Pseudomonas aeruginosa, antibiotic alone (second value of cell), read-out: MIC
Description: as §1

[10] = test system: EcR1: Penicillinase-Producing Escherichia coli without Associated Resistance; assay: Antibiogram, MIC by the VITEK 2 system; format: cell-based; settings: for MIC: Escherichia coli
Description: (§2) 5.1 EcR1: Penicillinase-Producing Escherichia coli without Associated Resistance The bacterial and antibiogramidentification is carried out by the VITEK 2 system (bioMérieux) and by the disk diffusion technique.

[11] = test system: EcR1: Penicillinase-Producing Escherichia coli without Associated Resistance; assay: Antibiogram by the disk diffusion technique; format: cell-based; settings: Table A1
Description: as §2

[12] = test system: EcR3: ESBL-Producing Escherichia coli; assay: Antibiogram by the disk diffusion technique; format: cell-based; settings: for Diameter: Table C1; for diameter in mm: Table C2
Description: The bacterial and antibiogramidentification is carried out by the VITEK 2 system (bioMerieux) and by the disk diffusion technique

[13] = test system: PaR3: Pseudomonas aeruginosa; assay: Antibiogram, MIC by the VITEK 2 system; format: cell-based
Description: (§3) The bacterial and antibiogramidentification is carried out by the VITEK 2 system (bioMérieux)

[14] = test system: PaR5: Pseudomonas aeruginosa; assay: Antibiogram by the disk diffusion technique; format: cell-based; settings: for diameter in mm: disk diffusion inhibition diameter, strain PaR5
Description: (§4) The bacterial and antibiogramidentification is carried out by the VITEK 2 system (bioMérieux) and by the disk diffusion technique

[15] = test system: PaR2: Pseudomonas aeruginosa; format: cell-based; settings: for Diameter: Table G1; for diameter in mm: Table G2
Description: as §4

[16] = MIC of the compounds used alone, microdilution in a liquid medium (CLSI); format: cell-based, Staphylococcus aureus; settings: Staphylococcus aureus, MRSA
Description: as §1

[17] = test system: MRSA strain having a resistance to the aminoglycosides and fluoroquinolones (SaR3); assay: as above; format: cell-based, Staphylococcus aureus; settings: Staphylococcus aureus, MRSA
Description: as §1

[18] = test system: MRSA strain without associated resistance (SaR1); assay: as above; format: cell-based, Staphylococcus aureus; settings: Staphylococcus aureus, MRSA
Description: as §1

[19] = test system: SaR1: Meticillin-Resistant Staphylococcus aureus without Associated Resistance; assay: Antibiogram, MIC by the VITEK 2 system; format: cell-based; settings: SaR1
Description: as §3

[20] = test system: SaR3: Meticillin-Resistant Staphylococcus aureus; assay: Antibiogram by the disk diffusion technique; format: cell-based
Description: as §4

[21] = test system: SaR4: Meticillin-Resistant Staphylococcus aureus; assay: Antibiogram, MIC by the VITEK 2 system; format: cell-based; settings: SaR4; for MIC: Staphylococcus aureus, read-out: MIC
Description: as §4

[22] = test system: Escherichia coli, Staphylococcus aureus and Pseudomonas aeruginosa strains; assay: Chessboard technique, summary statements over all strains and combinations tested; format: cell-based; settings: strain not stated
Description: 1.3. Procedure: Chessboard Technique
The same procedure is followed for the Cx1. […] Thus 64 ATB/Cx1 combinations are obtained.
The FIC (Fractional Inhibitory Concentration Index) value is defined by the following formula: […]
When FIC≦0.5, there is a synergistic effect between antibiotic A and antibiotic B.
When 0.5<FIC≦1, there is an additive effect between antibiotic A and antibiotic B.
When 1<FIC≦4, there is an indifferent effect between antibiotic A and antibiotic B.
When FIC>4, there is an antagonistic effect between antibiotic A and antibiotic B.
For each strain and each antibiotic/Cx1 combination, the experiments were repeated a minimum of 3 times.

[23] = test system: SaR1: Meticillin-Resistant Staphylococcus aureus without Associated Resistance; assay: Antibiogram, inhibition diameter (Table D1); format: cell-based
Description: as §3

[24] = test system: EcR2: Cephalosporinase-Hyperproducing Strain of Escherichia coli; assay: Antibiogram, MIC by the VITEK 1 system; format: cell-based; settings: Escherichia coli, read-out: MIC
Description: The bacterial and antibiogramidentification is carried out by the VITEK 1 system (bioMérieux) and by the disk diffusion technique

[25] = ATCC29213, antibiotic alone (second value of cell), S. aureus ATCC 29213, read-out: Initial MICs
[26] = EcR1, Table A2, read-out: MIC mg/L (diameter in mm)
[27] = EcR1, VITEK 2, Table A1, read-out: MIC
[28] = Pseudomonas aeruginosa, Table H2, read-out: MIC
[29] = antibiotic alone (second value of cell), SaR4, read-out: MIC
[30] = antibiotic alone (second value of cell), SaR3, read-out: MIC
[31] = antibiotic alone (second value of cell), SaR1, read-out: MIC

NCC[C@H](O)C(=O)N[C@@H]1C[C@H](N)[C@@H](O[C@H]2O[C@H](CN)[C@@H](O)[C@H](O)[C@H]2O)[C@H](O)[C@H]1O[C@H]1O[C@H](CO)[C@@H](O)[C@H](N)[C@H]1O [Amikacin]
MIC [1]: 1 µg/mL | MIC [2]: 0.25 µg/mL | MIC [3]: 0.5 µg/mL | MIC [4]: 1 µg/mL | MIC [5, 25]: 1 mg/L | MIC [6]: 0.5 µg/mL | MIC [7]: 0.5 µg/mL | MIC [8]: 0.25 µg/mL | MIC [9]: 1 µg/mL (≈ 1.71 µM) | CA-SFM Interpretation ([10]; EcR1, MIC against Cc CA-SFM 2011): Susceptible | CLSI Interpretation ([10]; EcR1, MIC against Cc CLSI 2011): Susceptible | EUCAST Interpretation ([10]; EcR1, MIC against Cc EUCAST 2011): Susceptible | Results ([10]; EcR1, interpretation of the MIC, Table A1): Susceptible | MIC [10, 26]: ≤ 2 mg/L | MIC [10, 27]: ≤ 2 mg/L | Diameter ([11]; EcR1, disk diffusion): 19 mm | Results ([11]; EcR1, interpretation of the diameter against Dmin Dmax): Susceptible | CA-SFM Interpretation ([12]; Cd CA-SFM 2011): Susceptible | CLSI Interpretation ([12]; Cd CLSI 2011): Susceptible | EUCAST Interpretation ([12]; Cd EUCAST 2011): Susceptible | Diameter [12]: 17 mm | Results ([12]; Table C1, against Dmin Dmax): Susceptible | diameter in mm [12]: 17 mm | CA-SFM Interpretation ([13]; Cc CA-SFM 2011): Susceptible | CLSI Interpretation ([13]; Cc CLSI 2011): Susceptible | EUCAST Interpretation ([13]; Cc EUCAST 2011): Susceptible | MIC [13, 28]: 4 µg/mL (≈ 6.83 µM) | MIC ([13]; Table H1): 4 µg/mL (≈ 6.83 µM) | Results ([13]; Table H1): Susceptible | Diameter ([14]; PaR5, Table I1): 27 mm | Results ([14]; PaR5, Table I1, against Dmin-Dmax): Susceptible | diameter in mm [14]: 27 mm | CA-SFM Interpretation ([14]; disk diffusion, PaR5, versus critical diameter CA-SFM 2011): Susceptible | CLSI Interpretation ([14]; disk diffusion, PaR5, versus critical diameter CLSI 2011): Susceptible | EUCAST Interpretation ([14]; disk diffusion, PaR5, versus critical diameter EUCAST 2011, for ** antibiotics the disk load differs and the EUCAST interpretation is not applicable): Susceptible | CA-SFM Interpretation ([15]; Cd CA-SFM 2011): Susceptible | CLSI Interpretation ([15]; Cd CLSI 2011): Susceptible | EUCAST Interpretation ([15]; Cd EUCAST 2011): Susceptible | Diameter [15]: 22 mm | Results ([15]; Table G1, against Dmin-Dmax): Susceptible | diameter in mm [15]: 22 mm

CC(=O)O[C@H]1C[C@@]2(C)[C@@H](C[C@@H](O)[C@H]3[C@@]4(C)CC[C@@H](O)[C@@H](C)[C@@H]4CC[C@@]32C)/C1=C(\CCC=C(C)C)C(=O)O [Fusidic acid]
MIC [5, 25]: 2 mg/L | MIC [16, 29]: 4 µg/mL | MIC [17, 30]: 0.25 µg/mL | MIC [18, 31]: 0.5 µg/mL | CA-SFM Interpretation ([19]; Cc CA-SFM 2011): Susceptible | EUCAST Interpretation ([19]; Cc EUCAST 2011): Susceptible | Results ([19]; Table D1, from MIC): Susceptible | MIC mg/L ([19]; Table D2): ≦0.5 mg/L | MIC ([19]; Staphylococcus aureus, Table D1, read-out: MIC): ≤ 0.5 µg/mL | CA-SFM Interpretation ([20]; Cd CA-SFM 2011): Susceptible | EUCAST Interpretation ([20]; Cd EUCAST 2011): Susceptible | Diameter ([20]; Table E1): 29 mm | Results ([20]; Table E1, against Dmin Dmax): Susceptible | diameter in mm ([20]; Table E2): 29 mm | Results ([21]; Table F1, MIC): Susceptible | CA-SFM Interpretation ([21]; from MIC, Cc CA-SFM 2011): Susceptible | EUCAST Interpretation ([21]; from MIC, Cc EUCAST 2011): Susceptible | MIC ([21]; Table F1): ≤ 1 µg/mL | MIC ([21]; Table F2, MIC): ≤ 1 µg/mL | interaction between the antibiotic and Cx1 [22]: synergism | Diameter [23]: 28 mm | Results ([23]; from diameter, against Dmin Dmax): Susceptible

C[C@@H](O)[C@H]1C(=O)N2C(C(=O)O)=C(SCCN=CN)C[C@H]12 [Imipenem]
MIC [1]: 0.125 µg/mL | MIC [2]: 0.125 µg/mL | MIC [3]: 2 µg/mL | MIC [4]: 32 µg/mL | MIC [5, 25]: 0.015 mg/L | MIC [6]: 0.125 µg/mL | MIC [7]: 2 µg/mL | MIC [8]: 0.125 µg/mL | MIC [16, 29]: 2 µg/mL | MIC [17, 30]: 0.25 µg/mL | MIC [18, 31]: 0.25 µg/mL | MIC [9]: 2 µg/mL (≈ 6.68 µM) | MIC [10, 26]: ≤ 0.5 mg/L | MIC [10, 27]: ≤ 1 mg/L | MIC ([24]; EcR2, VITEK 1, Table B1): ≤ 4 µg/mL | MIC ([24]; EcR2, Table B2, MIC): ≤ 0.5 µg/mL | Diameter [12]: 27 mm | diameter in mm [12]: 27 mm | MIC [13, 28]: ≥ 16 µg/mL | MIC ([13]; Table H1): ≧16 | Diameter ([14]; PaR5, Table I1): 25 mm | diameter in mm [14]: 25 mm | Diameter [15]: 27 mm | diameter in mm [15]: 27 mm

[H]/N=C(/N)N[C@H]1[C@H](O)[C@@H](O)[C@H](O[C@@H]2O[C@@H](C)[C@](O)(C=O)[C@H]2O[C@@H]2O[C@@H](CO)[C@H](O)[C@@H](O)[C@@H]2NC)[C@@H](N/C(N)=N\[H])[C@@H]1O [Streptomycin]
MIC [5, 25]: 4 mg/L | MIC [16, 29]: 4 µg/mL | MIC [17, 30]: 4 µg/mL | MIC [18, 31]: 4 µg/mL | interaction between the antibiotic and Cx1 [22]: synergism

CN(C)c1cc(NC(=O)CNC(C)(C)C)c(O)c2c1C[C@H]1C[C@H]3[C@H](N(C)C)C(O)=C(C(N)=O)C(=O)[C@@]3(O)C(O)=C1C2=O [Tigecycline]
MIC ([5]; ATCC29213, read-out: Initial MICs (mg/L)): 0.25 mg/L | MIC [16]: 0.25 µg/mL | MIC [17]: 0.25 µg/mL | MIC [18]: 0.25 µg/mL | interaction between the antibiotic and Cx1 [22]: synergism
